Experimental data from ChEMBL document CHEMBL1146053, “Discovery and optimization of a novel series of liver X receptor-alpha agonists” (Bioorg Med Chem Lett, 2006).

Legend:
[1] = biological target: T1, Oxysterols receptor LXR-alpha (Homo sapiens, UniProt Q13133); assay: Activity against LXR alpha transiently transfected in HEK293 cells; type: cell-based
T1 sequence (Q13133 whole entry): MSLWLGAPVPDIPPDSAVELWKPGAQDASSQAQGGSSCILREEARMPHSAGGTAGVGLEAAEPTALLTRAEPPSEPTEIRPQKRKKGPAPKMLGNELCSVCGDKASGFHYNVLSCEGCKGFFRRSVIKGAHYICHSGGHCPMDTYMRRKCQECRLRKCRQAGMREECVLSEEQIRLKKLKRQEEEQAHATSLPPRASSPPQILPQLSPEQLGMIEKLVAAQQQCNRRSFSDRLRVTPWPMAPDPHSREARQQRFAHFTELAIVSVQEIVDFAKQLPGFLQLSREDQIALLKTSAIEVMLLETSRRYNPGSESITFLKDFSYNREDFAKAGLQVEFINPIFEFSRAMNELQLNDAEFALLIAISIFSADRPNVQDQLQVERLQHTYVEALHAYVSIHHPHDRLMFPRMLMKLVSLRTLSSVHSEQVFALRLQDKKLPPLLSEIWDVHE

[2] = AUC in Sprague-Dawley rat at 5 mg/kg, po; type: ADME, organism-based; parameters: dose 5 mg/kg, route oral; conditions: plasma
[3] = Half life in dog at 5 mg/kg, po; type: ADME, organism-based, Canis lupus familiaris; parameters: dose 5 mg/kg, route oral; conditions: in vivo
[4] = AUC in dog at 5 mg/kg, po; type: ADME, organism-based, Canis lupus familiaris; parameters: dose 5 mg/kg, route oral; conditions: plasma
[5] = Half life in mice at 5 mg/kg, po; type: ADME, organism-based; parameters: dose 5 mg/kg, route oral; conditions: mouse, in vivo
[6] = AUC in mice at 5 mg/kg, po; type: ADME, organism-based; parameters: dose 5 mg/kg, route oral; conditions: mouse, plasma

Compound | EC50 [1] [µM] | other results
CN(c1ccc(C(O)C(F)(F)F)cc1)S(=O)(=O)c1ccccc1 (stereo unspecified) | > 5 | –
CN(c1cccc(C(O)(C(F)(F)F)C(F)(F)F)c1)S(=O)(=O)c1ccccc1 | 1 | –
CN(c1ccc(C(O)(C(F)(F)F)C(F)(F)F)cc1)S(=O)(=O)c1ccccc1C#N | 0.7 | –
CN(C(=O)c1ccccc1)c1ccc(C(O)(C(F)(F)F)C(F)(F)F)cc1 | 0.1 | –
CC(C)CN(c1ccc(C(O)(C(F)(F)F)C(F)(F)F)cc1)S(=O)(=O)c1cccs1 | 0.04 | AUC [2]: 3.2 µg·h/mL
O=S(=O)(c1ccccc1)N(c1ccc(C(O)(C(F)(F)F)C(F)(F)F)cc1)C1CCCC1 | 0.008 | –
CN(C(=O)c1ccc(C(O)(C(F)(F)F)C(F)(F)F)cc1)c1ccccc1 | 0.2 | –
CN(Cc1ccc(C(O)(C(F)(F)F)C(F)(F)F)cc1)S(=O)(=O)c1ccccc1 | 3 | –
C[C@H](CC[C@@H]1OC1(C)C)[C@H]1CC[C@H]2[C@@H]3CC=C4C[C@@H](O)CC[C@]4(C)[C@H]3CC[C@]12C [24(S),25-EPOXYCHOLESTEROL] | 0.5 | –
CN(c1ccc(C(O)(C(F)(F)F)C(F)(F)F)cc1)S(=O)(=O)c1cccc(C#N)c1 | 0.02 | –
O=S(=O)(Nc1ccc(C(O)(C(F)(F)F)C(F)(F)F)cc1)c1ccccc1 | 4 | –
CN(c1ccc(C(O)(C(F)(F)F)C(F)(F)F)c(Cl)c1)S(=O)(=O)c1ccccc1 | > 5 | –
CN(c1ccc(C(O)(C(F)(F)F)C(F)(F)F)cc1)S(=O)(=O)c1cccc(S(N)(=O)=O)c1 | 0.08 | –
CN(c1ccc(C(O)(C(F)(F)F)C(F)(F)F)cc1)S(=O)(=O)c1ccc(C#N)cc1 | 2 | –
CN(c1ccc(C(O)(C(F)(F)F)C(F)(F)F)cc1)S(=O)(=O)c1cccc(-c2ccccc2)c1 | 0.03 | –
O=S(=O)(c1ccccc1)N1CCCc2cc(C(O)(C(F)(F)F)C(F)(F)F)ccc21 | 0.03 | –
O=S(=O)(c1ccccc1)N1CCc2cc(C(O)(C(F)(F)F)C(F)(F)F)ccc21 | 0.05 | –
CN(c1ccc(C(O)(C(F)(F)F)C(F)(F)F)cc1Cl)S(=O)(=O)c1ccccc1 | 0.2 | –
CN(c1ccc(C(O)(C(F)(F)F)C(F)(F)F)cc1)S(=O)(=O)c1cccs1 | 0.6 | –
COC(c1ccc(N(C)S(=O)(=O)c2ccccc2)cc1)(C(F)(F)F)C(F)(F)F | 1 | –
O=S(=O)(c1ccccc1)N1CCCCc2cc(C(O)(C(F)(F)F)C(F)(F)F)ccc21 | 0.01 | –
CC(C)COC(=O)N(C)c1ccc(C(O)(C(F)(F)F)C(F)(F)F)cc1 | 0.1 | –
CN(c1ccccc1)S(=O)(=O)c1ccc(C(O)(C(F)(F)F)C(F)(F)F)cc1 | 0.1 | –
O=S(=O)(c1ccccc1)N(CC(F)(F)F)c1ccc(C(O)(C(F)(F)F)C(F)(F)F)cc1 [T091317] | – | half-life [3]: 5.8 h; AUC [2]: 5.92 µg·h/mL; AUC [4]: 7.3 µg·h/mL; half-life [5]: 3 h; AUC [6]: 3.42 µg·h/mL
CN(c1ccc(C(C)(O)C(F)(F)F)cc1)S(=O)(=O)c1ccccc1 (stereo unspecified) | 5 | –
O=S(=O)(c1ccccc1)N1CCOc2cc(C(O)(C(F)(F)F)C(F)(F)F)ccc21 | 0.1 | –
